Biological target: T1, CPS1 (Homo sapiens, UniProt P31327)
T1 construct: The full length, human CPS1 gene was cloned into pFastBac HTA; His6 (from the pFastBac HTA vector); made in house; host or cells: SF21 insect cells (baculovirus, Bac-to-bac)
T1 sequence (P31327 39-1500): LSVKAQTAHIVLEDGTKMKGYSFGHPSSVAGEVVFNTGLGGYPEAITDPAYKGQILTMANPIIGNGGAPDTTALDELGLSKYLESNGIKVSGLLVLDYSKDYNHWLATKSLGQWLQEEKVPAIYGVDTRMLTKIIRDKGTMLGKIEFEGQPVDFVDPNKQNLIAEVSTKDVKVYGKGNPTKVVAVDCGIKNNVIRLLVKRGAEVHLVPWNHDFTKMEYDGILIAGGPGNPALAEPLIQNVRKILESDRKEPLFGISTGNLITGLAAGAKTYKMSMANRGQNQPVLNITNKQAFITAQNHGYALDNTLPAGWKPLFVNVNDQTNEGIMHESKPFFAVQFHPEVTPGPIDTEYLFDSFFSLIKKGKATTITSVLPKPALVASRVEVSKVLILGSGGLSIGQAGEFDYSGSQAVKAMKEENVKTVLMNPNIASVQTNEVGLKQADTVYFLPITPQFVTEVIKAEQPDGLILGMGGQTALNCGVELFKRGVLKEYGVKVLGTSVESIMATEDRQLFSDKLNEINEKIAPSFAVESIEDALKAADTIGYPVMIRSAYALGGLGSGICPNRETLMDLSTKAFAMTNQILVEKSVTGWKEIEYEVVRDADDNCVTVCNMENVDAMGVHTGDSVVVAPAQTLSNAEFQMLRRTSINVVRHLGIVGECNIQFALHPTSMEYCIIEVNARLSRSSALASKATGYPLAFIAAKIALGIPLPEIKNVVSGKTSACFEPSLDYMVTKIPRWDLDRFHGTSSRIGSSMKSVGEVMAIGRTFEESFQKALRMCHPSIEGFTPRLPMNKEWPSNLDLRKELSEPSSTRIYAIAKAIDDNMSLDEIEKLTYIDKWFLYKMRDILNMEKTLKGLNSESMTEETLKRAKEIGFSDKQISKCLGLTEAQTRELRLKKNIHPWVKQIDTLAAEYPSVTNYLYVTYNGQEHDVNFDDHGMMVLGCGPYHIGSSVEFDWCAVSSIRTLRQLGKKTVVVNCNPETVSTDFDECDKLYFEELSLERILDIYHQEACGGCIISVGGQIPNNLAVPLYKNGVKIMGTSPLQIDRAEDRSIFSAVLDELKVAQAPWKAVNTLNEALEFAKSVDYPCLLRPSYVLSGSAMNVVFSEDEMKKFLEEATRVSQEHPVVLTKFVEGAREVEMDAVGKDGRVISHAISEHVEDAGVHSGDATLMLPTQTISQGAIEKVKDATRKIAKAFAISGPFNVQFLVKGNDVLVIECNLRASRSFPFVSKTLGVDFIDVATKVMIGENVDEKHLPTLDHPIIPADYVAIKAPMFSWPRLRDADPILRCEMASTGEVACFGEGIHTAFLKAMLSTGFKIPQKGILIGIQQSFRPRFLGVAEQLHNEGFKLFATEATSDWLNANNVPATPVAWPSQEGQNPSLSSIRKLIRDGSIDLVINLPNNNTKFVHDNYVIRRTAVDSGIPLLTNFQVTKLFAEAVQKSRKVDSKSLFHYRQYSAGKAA
Assay: ADP-Glo endpoint assay measuring the ATPase activity of CPS1
Type: biochemical
Conditions: geometric mean of a minimum of two values; 50 nM CPS1, 10 μM ATP, 0.2 mM NAG, 60 min at room temperature; read-out: ADPGlo IC50
Description: CPS1 was expressed and purified from SF21 insect cells. The full length, human CPS1 gene was cloned into pFastBac HTA and baculovirus was generated using the Bac-to-bac expression system from Invitrogen. P3 virus was used to infect SF21 insect cells at a density of 1.5E6 cells/mL at an MOI of 2. Cells were harvested by centrifugation after 60 hrs and the cell pellet resuspended in lysis buffer (50 mM glycyl glycine pH 7.4, 20 mM KCl, 1 mM TCEP, 10% glycerol and 20 mM imidazole with Roche protease inhibitor tablet) before being lysed with 40 strokes of a Dounce homogenizer on ice. The insoluble fraction of the lysate was then cleared by centrifugation at 30,000 rpm for 30 min. 40 mL of supernatant was mixed with 2 mL of Ni NTA beads for 45 min at 4° C. in a 50 mL conical tube.
The beads were washed with 40 mL of wash buffer (50 mM glycyl glycine pH 7.4, 500 mM NaCl, 1 mM TCEP, 10% glycerol and 50 mM imidazole) by centrifugation and resuspension of the beads three times. Bound CPS1 protein was eluted in 6 mL of elution buffer (50 mM glycyl glycine pH 7.4, 500 mM NaCl, 1 mM TCEP, 10% glycerol and 250 mM imidazole) three times. Elution fractions were combined and concentrated using an Amicon Ultra centrifugation filter with a 10,000 molecular weight cut off. Imidazole was removed by repeated concentration and resuspension in storage buffer in the filter device (50 mM glycyl glycine pH 7.4, 500 mM NaCl, 1 mM TCEP and 20% glycerol). CPS1 was concentrated to a final concentration of ˜3 mg/mL before being aliquoted, flash frozen in liquid nitrogen and stored at −80° C.
CPS1 activity was measured and compounds profiled in an endpoint assay measuring the ATPase activity of CPS1 using the ADP-Glo kit from Promega. 50 nM CPS1 was incubated alone or with varying amounts of tested compound from DMSO stocks in assay buffer (50 mM HEPES pH 7.0, 12.5 mM KHCO3, 1.5 mM (NH4)2SO3, 5 mM MgCl2, 50 mM KCl, 1 mM TCEP, 0.01% TritonX 100, 0.0025% BSA and 0.2 mM NAG) for 20 min in a 3 μL volume in a 384-well plate (Corning Cat#3820). The final concentration of DMSO was 0.04%. The reaction was initiated by the addition of 10 μM ATP, bringing the final volume to 6 μL. After 60 min at room temperature, the reaction was terminated with 3 μL ADP-Glo reagent and incubated at room temperature for 30 min. 3 μL of kinase detection reagent was then added and luminescent signal measured on an Envision plate reader after 30 min.

Row | Structure (SMILES) | IC50 [µM]
1 | COc1ccc(C(=O)N2C[C@@H](C)N(C(=O)/C=C/c3ccc(O)cc3)[C@H](C)C2)c(F)c1 [Compound 106, (E)-1-((2R,6R)-4-(2-fluoro-4-methoxybenzoyl)-2,6-dimethylpiperazin-1-yl)-3-(4-hydroxypheny)prop-2-en-1-one] | 4.22
2 | COc1ccc(OC)c2[nH]c(C(=O)N3C[C@@H](C)N(C(=O)c4ccc5cc[nH]c5c4)[C@H](C)C3)cc12 [Compound 53, ((3R,5R)-4-(1H-indole-6-carbonyl)-3,5-dimethylpiperazin-1-yl)(4,7-dimethoxy-1H-indol-2-yl)methanone] | 1.59
3 | COc1ccc(C(=O)N2[C@@H](C)CN(C(=O)c3cc(OC)ccc3F)C[C@@H]2C)c(F)c1 [Compound 97, ((3S,5S)-4-(2-fluoro-4-methoxybenzoyl)-3,5-dimethylpiperazin-1-yl)(2-fluoro-5-methoxyphenyl)methanone] | > 66.7
4 | COc1ccc(C(=O)N2[C@H](C)CN(C(=O)c3ccc(N(C)C)cc3F)C[C@H]2C)c(F)c1 [Compound 20, ((2R,6R)-4-(4-(Dimethylamino)-2-fluorobenzoyl)-2,6-dimethylpiperazin-1-yl)(2-fluoro-4-methoxyphenyl)methanone] | 3.96
5 | COc1ccc(C(=O)N2C[C@@H](C)N(C(=O)c3ccc(OC(F)F)cc3F)[C@H](C)C2)c(F)c1 [Compound 33, ((3R,5R)-4-(4-(difluoromethoxy)-2-fluorobenzoyl)-3,5-dimethylpiperazin-1-yl)(2-fluoro-4-methoxyphenyl)methanone] | 2.54
6 | COc1ccc(C(=O)N2C[C@@H](C)N(C(=O)c3ccc(OC(C)C)cc3F)[C@H](C)C2)c(F)c1 [Compound 30, ((3R,5R)-4-(2-fluoro-4-isopropoxybenzoyl)-3,5-dimethylpiperazin-1-yl)(2-fluoro-4-methoxyphenyl)methanone] | 1.47
7 | COc1ccc(OC)c2[nH]c(C(=O)N3[C@H](C)CN(C(=O)c4ccc5cc[nH]c5c4)C[C@H]3C)cc12 [Compound 52, ((2R,6R)-4-(1H-indole-6-carbonyl)-2,6-dimethylpiperazin-1-yl)(4,7-dimethoxy-1H-indol-2-yl)methanone] | 0.193
8 | COc1ccc(C(=O)N2[C@H](C)CN(C(=O)c3ccc4c(c3)NC(=O)CO4)C[C@H]2C)c(F)c1 [Compound 35, 6-((3R,5R)-4-(2-Fluoro-4-methoxybenzoyl)-3,5-dimethylpiperazine-1-carbonyl)-2H-benzo[b][1,4]oxazin-3(4H)-one] | 7.97
9 | COc1ccc(C(=O)N2CCN(C(=O)c3ccc(OC)cc3F)[C@@H](C)C2)c(F)c1 [Compound 51, (S)-(2-Methylpiperazine-1,4-diyl)bis((2-fluoro-4-methoxyphenyl)methanone)] | 2.78
10 | COc1ccc(C(=O)N2C[C@@H](C)N(C(=O)c3cc4cc(O)ccc4[nH]3)[C@H](C)C2)c(F)c1 [Compound 55, ((2R,6R)-4-(2-fluoro-4-methoxybenzoyl)-2,6-dimethylpiperazin-1-yl)(5-hydroxy-1H-indol-2-yl)methanone] | 2.13
11 | COc1ccc(OC)c2[nH]c(C(=O)N3[C@H](C)CN(C(=O)Cc4cc5ccccc5[nH]4)C[C@H]3C)cc12 [Compound 84, 1-((3R,5R)-4-(4,7-dimethoxy-1H-indole-2-carbonyl)-3,5-dimethylpiperazin-1-yl)-2-(1H-indol-2-yl)ethanone] | 32.1
12 | COc1ccc(C(=O)N2C[C@@H](C)N(C(=O)c3ccc4cc[nH]c4c3F)[C@H](C)C2)c(F)c1 [Compound 73, (7-fluoro-1H-indol-6-yl)((2R,6R)-4-(2-fluoro-4-methoxybenzoyl)-2,6-dimethylpiperazin-1-yl)methanone] | 11.6
13 | COc1ccc(C(=O)N2[C@H](C)CN(C(=O)c3c[nH]c4c(F)cccc34)C[C@H]2C)c(F)c1 [Compound 58, (7-fluoro-1H-indol-3-yl)((3R,5R)-4-(2-fluoro-4-methoxybenzoyl)-3,5-dimethylpiperazin-1-yl)methanone] | 4.05
14 | COc1ccc(C(=O)N2[C@H](C)CN(C(=O)c3c[nH]c4c(Cl)cccc34)C[C@H]2C)c(F)c1 [Compound 36, (7-Chloro-1H-indol-3-yl)((3R,5R)-4-(2-fluoro-4-methoxybenzoyl)-3,5-dimethylpiperazin-1-yl)methanone] | 1.15
15 | COc1ccc(C(=O)N2CCN(C(=O)c3ccc(OC)cc3F)C(C)C2C)c(F)c1 (centres unmarked) [Compound 86, (2,3-dimethylpiperazine-1,4-diyl)bis((2-fluoro-4-methoxyphenyl)methanone)] | 36.1
16 | COc1ccc(C(=O)N2[C@H](C)CN(C(=O)c3c[nH]c4ccccc34)C[C@H]2C)c(F)c1 [Compound 77, ((2R,6R)-4-(1H-indole-3-carbonyl)-2,6-dimethylpiperazin-1-yl)(2-fluoro-4-methoxyphenyl)methanone] | 18.9
17 | COc1ccc(C(=O)N2[C@H](C)CN(C(=O)c3cc4ccccc4[nH]3)C[C@H]2C)c(F)c1 [Compound 59, ((2R,6R)-4-(1H-indole-2-carbonyl)-2,6-dimethylpiperazin-1-yl)(2-fluoro-4-methoxyphenyl)methanone] | 5.58
18 | COc1ccc(C(=O)N2C[C@@H](C)N(C(=O)c3cccc(O)c3F)[C@H](C)C2)c(F)c1 [Compound 75, ((3R,5R)-4-(2-fluoro-3-hydroxybenzoyl)-3,5-dimethylpiperazin-1-yl)(2-fluoro-4-methoxyphenyl)methanone] | 16.1
19 | COc1ccc(C(=O)N2[C@H](C)CN(C(=O)c3ccc(OC)c(F)c3F)C[C@H]2C)c(F)c1 [Compound 2, ((2R,6R)-4-(2,3-Difluoro-4-methoxybenzoyl)-2,6-dimethylpiperazin-1-yl)(2-fluoro-4-methoxyphenyl)methanone] | 0.427
20 | COc1ccc(C(=O)N2C[C@@H](C)N(C(=O)c3ccc(-c4nnn[nH]4)cc3)[C@H](C)C2)c(F)c1 [Compound 90, ((3R,5R)-4-(4-(1H-tetrazol-5-yl)benzoyl)-3,5-dimethylpiperazin-1-yl)(2-fluoro-4-methoxyphenyl)methanone] | 45
